For orientation: MIC means the lowest concentration found to suppress growth. What is called Cmax is the highest concentration seen after dosing.

Converted amounts (≈) assume the structure as drawn.

Consider three compounds from ChEMBL document CHEMBL1127356, “(Fluorocyclopropyl)quinolones. 2. Synthesis and Stereochemical structure-activity relationships of chiral 7-(7-amino-5-azaspiro[2.4]heptan-5-yl)-1-(2-fluorocyclopropyl)quinolone antibacterial agents” (J Med Chem, 1994).

The first series deals with Enterococcus faecalis. In words: Minimum inhibitory concentration in vitro against Streptococcus faecalis (ATCC 19433). The conditions noted are these: Enterococcus faecalis, ATCC 19433; read-out: MIC. The class given is functional.
In the case of `N[C@H]1CN(c2c(F)cc3c(=O)c(C(=O)O)cn(C4CC4)c3c2Cl)CC12CC2`, the MIC came out at 0.1 µg/mL (≈ 0.255 µM).

Regarding `NC1CCN(c2c(F)cc3c(=O)c(C(=O)O)cn([C@@H]4C[C@@H]4F)c3c2Cl)C1` (single isomer, unassigned), the MIC was 0.2 µg/mL (≈ 0.521 µM).

As to `N[C@H]1CN(c2c(F)cc3c(=O)c(C(=O)O)cn(C4C[C@H]4F)c3c2Cl)CC12CC2` (single isomer, unassigned), the minimum inhibitory concentration (MIC) amounted to 0.39 µg/mL (≈ 0.952 µM).

The test system of another series is Serratia marcescens. In words: Minimum inhibitory concentration in vitro against […]. Particulars: Serratia marcescens; read-out: MIC. The format is functional.
In the case of `N[C@H]1CN(c2c(F)cc3c(=O)c(C(=O)O)cn(C4CC4)c3c2Cl)CC12CC2`, the MIC turned out to be 0.025 µg/mL (≈ 0.0638 µM).

For the compound `NC1CCN(c2c(F)cc3c(=O)c(C(=O)O)cn([C@@H]4C[C@@H]4F)c3c2Cl)C1` (single isomer, unassigned), the MIC is 0.025 µg/mL (≈ 0.0651 µM).

As to `N[C@H]1CN(c2c(F)cc3c(=O)c(C(=O)O)cn(C4C[C@H]4F)c3c2Cl)CC12CC2` (single isomer, unassigned), the MIC stood at 0.5 µg/mL (≈ 1.22 µM).

Another series concerns Proteus vulgaris. In words: Minimum inhibitory concentration in vitro against Proteus vulgaris (08601). The conditions noted are these: Proteus vulgaris; read-out: MIC. The format is functional.
With `N[C@H]1CN(c2c(F)cc3c(=O)c(C(=O)O)cn(C4CC4)c3c2Cl)CC12CC2`, the MIC was 0.006 µg/mL (≈ 0.0153 µM).

Consider `NC1CCN(c2c(F)cc3c(=O)c(C(=O)O)cn([C@@H]4C[C@@H]4F)c3c2Cl)C1` (single isomer, unassigned), for which the MIC stood at 0.006 µg/mL (≈ 0.0156 µM).

Consider `N[C@H]1CN(c2c(F)cc3c(=O)c(C(=O)O)cn(C4C[C@H]4F)c3c2Cl)CC12CC2` (single isomer, unassigned), for which the MIC was 0.05 µg/mL (≈ 0.122 µM).

The next series deals with Streptococcus pyogenes. In words: Minimum inhibitory concentration in vitro against Streptococcus pyogenes (G36). The class given is functional. Particulars: Streptococcus pyogenes; read-out: MIC.
Consider `N[C@H]1CN(c2c(F)cc3c(=O)c(C(=O)O)cn(C4CC4)c3c2Cl)CC12CC2`, for which the MIC came to 0.1 µg/mL (≈ 0.255 µM).

Consider `NC1CCN(c2c(F)cc3c(=O)c(C(=O)O)cn([C@@H]4C[C@@H]4F)c3c2Cl)C1` (single isomer, unassigned), for which the MIC stood at 0.1 µg/mL (≈ 0.261 µM).

Consider `N[C@H]1CN(c2c(F)cc3c(=O)c(C(=O)O)cn(C4C[C@H]4F)c3c2Cl)CC12CC2` (single isomer, unassigned), for which the MIC came to 0.2 µg/mL (≈ 0.488 µM).

System in another series: not listed separately
In words: Maximum concentration in plasma was determined by oral administration to rats at 20 mg/kg. Also noted: dose 20 mg/kg, route oral. Particulars: rat. The format is ADME, organism-based.
Compound `N[C@H]1CN(c2c(F)cc3c(=O)c(C(=O)O)cn(C4CC4)c3c2Cl)CC12CC2` registered a Cmax of 3400 ng/mL.

Turning to `NC1CCN(c2c(F)cc3c(=O)c(C(=O)O)cn([C@@H]4C[C@@H]4F)c3c2Cl)C1` (single isomer, unassigned), the Cmax was 2000 ng/mL.

For another series, the system named is Staphylococcus aureus. In words: Minimum inhibitory concentration in vitro against Staphylococcus aureus (209P). The format is functional.
Details: not given
Compound `NC1CCN(c2c(F)cc3c(=O)c(C(=O)O)cn([C@@H]4C[C@@H]4F)c3c2Cl)C1` (single isomer, unassigned) came in with an MIC of 0.013 µg/mL (≈ 0.0339 µM).

System in another series: not listed separately
In words: Urinary recovery by oral administration to rats in unchanged form of compound at 20 mg/kg. The class given is ADME, organism-based. Also noted: dose 20 mg/kg, route oral. The conditions noted are these: rat, urine, read-out: Urinary recovery.
Consider `N[C@H]1CN(c2c(F)cc3c(=O)c(C(=O)O)cn(C4CC4)c3c2Cl)CC12CC2`, for which the dose excreted worked out at 7%.

A further series relates to Rattus norvegicus. In words: Urinary recovery by oral administration to rats in conjugate form of compound at 20 mg/kg. The class given is ADME, organism-based, Urine. On the set-up: dose 20 mg/kg, route oral. Particulars: in vivo.
Consider `N[C@H]1CN(c2c(F)cc3c(=O)c(C(=O)O)cn(C4CC4)c3c2Cl)CC12CC2`, for which the Urinary recovery came to 7%.

For another series, the system named is Staphylococcus aureus. In words: Minimum inhibitory concentration in vitro against […] (209P). The class given is functional. The conditions noted are these: Staphylococcus aureus; read-out: MIC.
With `N[C@H]1CN(c2c(F)cc3c(=O)c(C(=O)O)cn(C4CC4)c3c2Cl)CC12CC2`, the MIC stood at 0.013 µg/mL (≈ 0.0332 µM).

Turning to `N[C@H]1CN(c2c(F)cc3c(=O)c(C(=O)O)cn(C4C[C@H]4F)c3c2Cl)CC12CC2` (single isomer, unassigned), the MIC was found to be 0.1 µg/mL (≈ 0.244 µM).

Another series has as its system Escherichia coli. In words: Minimum inhibitory concentration in vitro against Escherichia coli (NIHJ). The format is functional. The conditions noted are these: Escherichia coli; read-out: MIC.
As to `N[C@H]1CN(c2c(F)cc3c(=O)c(C(=O)O)cn(C4CC4)c3c2Cl)CC12CC2`, the MIC was less than 0.006 µg/mL.

`NC1CCN(c2c(F)cc3c(=O)c(C(=O)O)cn([C@@H]4C[C@@H]4F)c3c2Cl)C1` (single isomer, unassigned): the MIC was determined as 0.006 µg/mL (≈ 0.0156 µM).

On to `N[C@H]1CN(c2c(F)cc3c(=O)c(C(=O)O)cn(C4C[C@H]4F)c3c2Cl)CC12CC2` (single isomer, unassigned), for which the MIC was determined as 0.05 µg/mL (≈ 0.122 µM).

For the next series, the system named is Klebsiella pneumoniae. In words: Minimum inhibitory concentration in vitro against Klebsiella pneumoniae (type-2). Particulars: Klebsiella pneumoniae; read-out: MIC. The format is functional.
Regarding `N[C@H]1CN(c2c(F)cc3c(=O)c(C(=O)O)cn(C4CC4)c3c2Cl)CC12CC2`, the MIC is 0.025 µg/mL (≈ 0.0638 µM).

For `NC1CCN(c2c(F)cc3c(=O)c(C(=O)O)cn([C@@H]4C[C@@H]4F)c3c2Cl)C1` (single isomer, unassigned), the MIC amounted to 0.05 µg/mL (≈ 0.13 µM).

Consider `N[C@H]1CN(c2c(F)cc3c(=O)c(C(=O)O)cn(C4C[C@H]4F)c3c2Cl)CC12CC2` (single isomer, unassigned), for which the MIC was determined as 0.1 µg/mL (≈ 0.244 µM).

Another series concerns Rattus norvegicus. In words: Urinary recovery by oral administration to rats at 20 mg/kg in conjugate form of compound. The class given is ADME, organism-based, Urine. On the set-up: dose 20 mg/kg, route oral. The conditions noted are these: in vivo.
The compound `NC1CCN(c2c(F)cc3c(=O)c(C(=O)O)cn([C@@H]4C[C@@H]4F)c3c2Cl)C1` (single isomer, unassigned) yielded a Urinary recovery of 4%.

For the next series, the system named is Staphylococcus epidermidis. In words: Minimum inhibitory concentration in vitro against […] (56556). The format is functional. Particulars: Staphylococcus epidermidis; read-out: MIC.
For `N[C@H]1CN(c2c(F)cc3c(=O)c(C(=O)O)cn(C4CC4)c3c2Cl)CC12CC2`, the MIC was 0.025 µg/mL (≈ 0.0638 µM).

As to `N[C@H]1CN(c2c(F)cc3c(=O)c(C(=O)O)cn(C4C[C@H]4F)c3c2Cl)CC12CC2` (single isomer, unassigned), the MIC is 0.2 µg/mL (≈ 0.488 µM).

System in another series: not listed separately
In words: Urinary recovery at 20 mg/kg was determined by oral administration to rats in unchanged form of compound. The class given is ADME, organism-based. Also noted: dose 20 mg/kg, route oral. Particulars: rat, urine, read-out: Urinary recovery.
Regarding `NC1CCN(c2c(F)cc3c(=O)c(C(=O)O)cn([C@@H]4C[C@@H]4F)c3c2Cl)C1` (single isomer, unassigned), the dose excreted worked out at 12%.

For the next series, the system named is Pseudomonas aeruginosa. In words: Minimum inhibitory concentration in vitro against Pseudomonas aeruginosa (32104). The format is functional. Particulars: Pseudomonas aeruginosa; read-out: MIC.
Take `N[C@H]1CN(c2c(F)cc3c(=O)c(C(=O)O)cn(C4CC4)c3c2Cl)CC12CC2`: the MIC is 0.05 µg/mL (≈ 0.128 µM).

Turning to `NC1CCN(c2c(F)cc3c(=O)c(C(=O)O)cn([C@@H]4C[C@@H]4F)c3c2Cl)C1` (single isomer, unassigned), the MIC was found to be 0.05 µg/mL (≈ 0.13 µM).

Regarding `N[C@H]1CN(c2c(F)cc3c(=O)c(C(=O)O)cn(C4C[C@H]4F)c3c2Cl)CC12CC2` (single isomer, unassigned), the MIC was found to be 0.78 µg/mL (≈ 1.9 µM).

The subject of another series is Staphylococcus epidermidis. In words: Minimum inhibitory concentration in vitro against Staphylococcus epidermis (56556).
Details: not given
The format is functional.
With `NC1CCN(c2c(F)cc3c(=O)c(C(=O)O)cn([C@@H]4C[C@@H]4F)c3c2Cl)C1` (single isomer, unassigned), the minimal inhibitory concentration (MIC) was found to be 0.05 µg/mL (≈ 0.13 µM).

For a further series, the system named is Enterobacter cloacae. In words: Minimum inhibitory concentration in vitro against Enterobacter cloacae (03400). The class given is functional. The conditions noted are these: Enterobacter cloacae; read-out: MIC.
On to `N[C@H]1CN(c2c(F)cc3c(=O)c(C(=O)O)cn(C4CC4)c3c2Cl)CC12CC2`, for which the minimal inhibitory concentration (MIC) was 0.006 µg/mL (≈ 0.0153 µM).

As to `NC1CCN(c2c(F)cc3c(=O)c(C(=O)O)cn([C@@H]4C[C@@H]4F)c3c2Cl)C1` (single isomer, unassigned), the minimal inhibitory concentration (MIC) stood at 0.006 µg/mL (≈ 0.0156 µM).

In the case of `N[C@H]1CN(c2c(F)cc3c(=O)c(C(=O)O)cn(C4C[C@H]4F)c3c2Cl)CC12CC2` (single isomer, unassigned), the minimal inhibitory concentration (MIC) is 0.05 µg/mL (≈ 0.122 µM).
